Experimental data taken from ChEMBL document CHEMBL3734723, “Synthesis and anticancer activity of 6-heteroarylcoumarins” (2015).

Columns and labels:
Type in all cases: functional
[1] = Growth inhibition of human BT549 cells incubated for 48 hrs by sulforhodamine B assay; details: BT-549, 48 h; for CC50: read-out: LC50 (the source's name)
[2] = tested on: SN12C; test: Growth inhibition of human SN12C cells incubated for 48 hrs by sulforhodamine B assay; details: for CC50: read-out: LC50 (the source's name)
[3] = Cytotoxicity against human SW620 cells assessed as cell growth at 10 uM incubated for 48 hrs by sulforhodamine B assay; details: SW-620, 48 h, read-out: Activity
[4] = Cytotoxicity against human LOXIMVI cells assessed as cell growth at 10 uM incubated for 48 hrs by sulforhodamine B assay; details: LOX IMVI, read-out: Activity
[5] = tested on: CCRF-CEM; test: Cytotoxicity against human CCRF-CEM cells assessed as cell growth at 10 uM incubated for 48 hrs by sulforhodamine B assay; details: read-out: Activity
[6] = Growth inhibition of human UACC257 cells incubated for 48 hrs by sulforhodamine B assay; details: UACC-257, 48 h; for CC50: read-out: LC50 (the source's name)
[7] = Growth inhibition of human DU145 cells incubated for 48 hrs by sulforhodamine B assay; details: DU-145, 48 h; for CC50: read-out: LC50 (the source's name)
[8] = Growth inhibition of human RPMI8226 cells incubated for 48 hrs by sulforhodamine B assay; details: RPMI-8226, 48 h; for CC50: read-out: LC50 (the source's name)
[9] = tested on: MDA-MB-468; test: Growth inhibition of human MDA-MB-468 cells incubated for 48 hrs by sulforhodamine B assay; details: MDA-MB-468, 48 h; for CC50: read-out: LC50 (the source's name)
[10] = tested on: 786-0; test: Growth inhibition of human 786-0 cells incubated for 48 hrs by sulforhodamine B assay; details: 786-0, 48 h; for CC50: read-out: LC50 (the source's name)
[11] = Cytotoxicity against human TK10 cells assessed as cell growth at 10 uM incubated for 48 hrs by sulforhodamine B assay; details: TK-10, 48 h, read-out: Activity
[12] = Growth inhibition of human HOP62 cells incubated for 48 hrs by sulforhodamine B assay; details: HOP-62, 48 h; for CC50: read-out: LC50 (the source's name)
[13] = Cytotoxicity against human OVCAR4 cells assessed as cell growth at 10 uM incubated for 48 hrs by sulforhodamine B assay; details: OVCAR-4, 48 h, read-out: Activity
[14] = Growth inhibition of human SKOV3 cells incubated for 48 hrs by sulforhodamine B assay; details: SK-OV-3, 48 h; for CC50: read-out: LC50 (the source's name)
[15] = Growth inhibition of human UACC62 cells incubated for 48 hrs by sulforhodamine B assay; details: UACC-62, 48 h; for CC50: read-out: LC50 (the source's name)
[16] = tested on: SK-MEL-5; test: Cytotoxicity against human SK-MEL-5 cells assessed as cell growth at 10 uM incubated for 48 hrs by sulforhodamine B assay; details: SK-MEL-5, 48 h, read-out: Activity
[17] = tested on: ACHN; test: Cytotoxicity against human ACHN cells assessed as cell growth at 10 uM incubated for 48 hrs by sulforhodamine B assay; details: read-out: Activity
[18] = tested on: NCI-H460; test: Cytotoxicity against human NCI-H460 cells assessed as cell growth at 10 uM incubated for 48 hrs by sulforhodamine B assay; details: NCI-H460, 48 h, read-out: Activity
[19] = Growth inhibition of human leukemia cells after 48 hrs by sulforhodamine B assay; details: Leukemia cell; for CC50: read-out: LC50 (the source's name)
[20] = Growth inhibition of human non-small cell lung cancer cells after 48 hrs by sulforhodamine B assay; details: Cancer cell lines; for CC50: read-out: LC50 (the source's name)
[21] = tested on: MDA-MB-231; test: Growth inhibition of human MDA-MB-231 cells incubated for 48 hrs by sulforhodamine B assay; details: MDA-MB-231, 48 h; for CC50: read-out: LC50 (the source's name)
[22] = Growth inhibition of human COLO205 cells incubated for 48 hrs by sulforhodamine B assay; details: COLO 205, 48 h; for CC50: read-out: LC50 (the source's name)
[23] = Cytotoxicity against human NCI-ADR-RES cells assessed as cell growth at 10 uM incubated for 48 hrs by sulforhodamine B assay; details: read-out: Activity
[24] = tested on: 786-0; test: Cytotoxicity against human 786-0 cells assessed as cell growth at 10 uM incubated for 48 hrs by sulforhodamine B assay; details: 786-0, 48 h, read-out: Activity
[25] = tested on: KM12; test: Cytotoxicity against human KM12 cells assessed as cell growth at 10 uM incubated for 48 hrs by sulforhodamine B assay; details: KM12, 48 h, read-out: Activity
[26] = tested on: A498; test: Cytotoxicity against human A498 cells assessed as cell growth at 10 uM incubated for 48 hrs by sulforhodamine B assay; details: A498, 48 h, read-out: Activity
[27] = Growth inhibition of human LOXIMVI cells incubated for 48 hrs by sulforhodamine B assay; details: LOX IMVI; for CC50: read-out: LC50 (the source's name)
[28] = Cytotoxicity against human UO31 cells assessed as cell growth at 10 uM incubated for 48 hrs by sulforhodamine B assay; details: UO-31, 48 h, read-out: Activity
[29] = Cytotoxicity against human HCT15 cells assessed as cell growth at 10 uM incubated for 48 hrs by sulforhodamine B assay; details: HCT-15, 48 h, read-out: Activity
[30] = Cytotoxicity against human HOP92 cells assessed as cell growth at 10 uM incubated for 48 hrs by sulforhodamine B assay; details: HOP-92, 48 h, read-out: Activity
[31] = tested on: CCRF-CEM; test: Growth inhibition of human CCRF-CEM cells incubated for 48 hrs by sulforhodamine B assay; details: for CC50: read-out: LC50 (the source's name)
[32] = tested on: NCI-H522; test: Growth inhibition of human NCI-H522 cells incubated for 48 hrs by sulforhodamine B assay; details: NCI-H522, 48 h; for CC50: read-out: LC50 (the source's name)
[33] = Cytotoxicity against human PC3 cells assessed as cell growth at 10 uM incubated for 48 hrs by sulforhodamine B assay; details: PC-3, 48 h, read-out: Activity
[34] = Cytotoxicity against human SF268 cells assessed as cell growth at 10 uM incubated for 48 hrs by sulforhodamine B assay; details: SF-268, 48 h, read-out: Activity
[35] = Growth inhibition of human HCT116 cells incubated for 48 hrs by sulforhodamine B assay; details: HCT-116, 48 h; for CC50: read-out: LC50 (the source's name)
[36] = tested on: M14; test: Cytotoxicity against human M14 cells assessed as cell growth at 10 uM incubated for 48 hrs by sulforhodamine B assay; details: M14, 48 h, read-out: Activity

Compound: Cc1cc(=O)oc2c(C)c(O)c(-c3ccnc(N)n3)cc12
- GI50 [1]: 47.8 µM
- TGI [1]: > 100 µM
- CC50 [1]: > 100 µM
- GI50 [2]: 29.2 µM
- TGI [2]: > 100 µM
- CC50 [2]: > 100 µM
- growth at 10 µM [3]: 38.4%
- growth at 10 µM [4]: 27.2%
- growth at 10 µM [5]: -36.8%
- GI50 [6]: > 100 µM
- TGI [6]: > 100 µM
- CC50 [6]: > 100 µM
- GI50 [7]: > 100 µM
- TGI [7]: > 100 µM
- CC50 [7]: > 100 µM
- GI50 [8]: 55.1 µM
- TGI [8]: > 100 µM
- CC50 [8]: > 100 µM
- GI50 [9]: 4.53 µM
- TGI [9]: > 100 µM
- CC50 [9]: > 100 µM
- GI50 [10]: 29.8 µM
- TGI [10]: > 100 µM
- CC50 [10]: > 100 µM
- growth at 10 µM [11]: 61.9%
- GI50 [12]: 10.9 µM
- TGI [12]: > 100 µM
- CC50 [12]: > 100 µM
- growth at 10 µM [13]: 68.6%
- GI50 [14]: 28.3 µM
- TGI [14]: > 100 µM
- CC50 [14]: > 100 µM
- GI50 [15]: 17.2 µM
- TGI [15]: > 100 µM
- CC50 [15]: > 100 µM
- growth at 10 µM [16]: 38.5%
- growth at 10 µM [17]: 26.9%
- growth at 10 µM [18]: 19.8%
- GI50 [19]: 31.9 µM
- TGI [19]: > 100 µM
- CC50 [19]: > 100 µM
- GI50 [20]: 24.4 µM
- TGI [20]: > 100 µM
- CC50 [20]: > 100 µM
- GI50 [21]: > 100 µM
- TGI [21]: > 100 µM
- CC50 [21]: > 100 µM
- GI50 [22]: 6.85 µM
- TGI [22]: > 100 µM
- CC50 [22]: > 100 µM
- growth at 10 µM [23]: 57.1%
- growth at 10 µM [24]: 62.1%
- growth at 10 µM [25]: 66.1%
- growth at 10 µM [26]: 42.9%
- GI50 [27]: 4.44 µM
- TGI [27]: > 100 µM
- CC50 [27]: > 100 µM
- growth at 10 µM [28]: 23%
- growth at 10 µM [29]: 50.4%
- growth at 10 µM [30]: 47.4%
- GI50 [31]: 8.7 µM
- TGI [31]: > 100 µM
- CC50 [31]: > 100 µM
- GI50 [32]: 20.7 µM
- TGI [32]: > 100 µM
- CC50 [32]: > 100 µM
- growth at 10 µM [33]: 60.3%
- growth at 10 µM [34]: 62.6%
- GI50 [35]: 3.05 µM
- TGI [35]: > 100 µM
- CC50 [35]: > 100 µM
- growth at 10 µM [36]: 68.6%

Compound: Cc1cc(=O)oc2c(C)c(O)c(-c3cc4ccc(F)cc4[nH]3)cc12
- GI50 [1]: 3.57 µM
- TGI [1]: 13.6 µM
- CC50 [1]: 65.9 µM
- GI50 [2]: 3.32 µM
- TGI [2]: 13 µM
- CC50 [2]: 48 µM
- growth at 10 µM [3]: 58.6%
- growth at 10 µM [4]: 36.4%
- growth at 10 µM [5]: 43.1%
- GI50 [6]: 1.82 µM
- TGI [6]: 3.78 µM
- CC50 [6]: 7.87 µM
- GI50 [7]: 3.53 µM
- TGI [7]: 18.4 µM
- CC50 [7]: > 100 µM
- GI50 [8]: 1.9 µM
- TGI [8]: 6.19 µM
- CC50 [8]: > 100 µM
- GI50 [9]: 2.31 µM
- TGI [9]: 8.66 µM
- CC50 [9]: 80.4 µM
- GI50 [10]: 4.1 µM
- TGI [10]: 14 µM
- CC50 [10]: 42.6 µM
- growth at 10 µM [11]: 59.9%
- GI50 [12]: 2.98 µM
- TGI [12]: 15.9 µM
- CC50 [12]: 45.4 µM
- growth at 10 µM [13]: 33.7%
- GI50 [14]: 2.93 µM
- TGI [14]: 13.1 µM
- CC50 [14]: 64.9 µM
- GI50 [15]: 2.19 µM
- TGI [15]: 13.2 µM
- CC50 [15]: 39.4 µM
- growth at 10 µM [16]: 8.97%
- growth at 10 µM [17]: 27.6%
- growth at 10 µM [18]: 28.4%
- GI50 [19]: 3.08 µM
- TGI [19]: 19.8 µM
- CC50 [19]: > 100 µM
- GI50 [20]: 2.75 µM
- TGI [20]: 12.4 µM
- CC50 [20]: 64.1 µM
- GI50 [21]: 2.49 µM
- TGI [21]: 10.2 µM
- CC50 [21]: > 100 µM
- GI50 [22]: 11.7 µM
- TGI [22]: 25.6 µM
- CC50 [22]: 56 µM
- growth at 10 µM [23]: 20.7%
- growth at 10 µM [24]: 42.2%
- growth at 10 µM [25]: 33.2%
- growth at 10 µM [26]: 52.5%
- GI50 [27]: 2.51 µM
- TGI [27]: 10.6 µM
- CC50 [27]: 37.3 µM
- growth at 10 µM [28]: 21.6%
- growth at 10 µM [29]: 31.9%
- growth at 10 µM [30]: -9.31%
- GI50 [31]: 4.42 µM
- TGI [31]: 47.7 µM
- CC50 [31]: > 100 µM
- GI50 [32]: 2.78 µM
- TGI [32]: 9.09 µM
- CC50 [32]: 48.9 µM
- growth at 10 µM [33]: 27.5%
- growth at 10 µM [34]: 48.7%
- GI50 [35]: 2.62 µM
- TGI [35]: 9.87 µM
- CC50 [35]: 31.5 µM
- growth at 10 µM [36]: 52.3%
